Where a SMILES comes first, the peptide text is derived from it.
Each molecule was assayed on HCV IRES (assay: HCV IRES reporter FACS assay (GFP expression ratio, intein-expressed cyclic peptides)). Conditions: 4-mers from mutant intein scaffold, junction Val-His-Asn-X1X2X3X4-Cys-Ser; ratio at least 1.20 = significant activity.
Type: cell-based, Hepatitis C virus
Excerpt: [The source words this procedure for another variant and says it was used here with some conditions changed.] Cells producing libraries of cyclic 3-mers and 4-mers (i.e., libraries of cyclic peptides that contain 3 or 4 amino acid residues) were constructed using methods identical to those of Kinsella et al (J Biol. Chem. 2002 277:37512-8), except different oligonucleotides were used for library construction. Clones from this library were screened in an assay shown in FIG. 2 to identify IRES-inhibitory compounds.
In summary, separate cyclic 3-mer and cyclic 4-mer libraries were constructed such that each peptide of the library contained a fixed Ser, Thr or Cys residue (at position 1) and the remaining residues were randomized. For library construction, degenerate oligonucleotides of sequence 5′-[…](AGC/ACC/TGC)(NNK)2 or 3 TGCATCAGCGGCGACAG-3′ were annealed to the primer 5′-[…]-3′ and extended using the Expand PCR kit (Roche Molecular Biochemicals). The double-stranded DNA insert was digested and inserted into the BclI/DrdI sites of DnaBO-e-BFP (ACUC). The plasmid libraries were electroporated into ElectroMAX DH 10B competent E. coli (Invitrogen) for amplification on LB+amp agar medium. […] Expression of the intein is detected by detecting BFP expression. Expression of the intein (and the cyclic peptide produced by the intein) is suppressible by addition of exogenous doxycycline. The amino acid sequence of the junctions of the intein scaffold used in making the 3-mer library is Val-His-Asn-X3 or 4-Cys-Ile-Ser, where X3 or 4 are three or four contiguous amino acids.
Infectious retroviral particles were produced by transfection of 15 µg of each library (as described in Swift et al, (1999). Current Protocols in Immunology Vol. 10.17C, pp. 1-17, Freeman, N.Y.) into approximately 5×10^6 Phoenix-A packaging cells. Each resulting library of retroviral particles was then used to infect 5×10^6 BJAB-S3A11 reporter cells and a FACS based selection was carried out to isolate cells with reduced HCV-IRES reporter output.
In detail, referring to FIG. 2, the cells used in the assay contained an IRES-dependent reporter system. […]. Also present in the cells is a control reporter system for assaying the activity of 5′ cap-dependent translation (the mechanism by which most cellular proteins are normally translated). The control reporter system contains a CMV promoter that drives the transcription of an RNA containing 5′ cap-dependent UTR, operably linked to an RNA encoding RFP (red fluorescent protein). Translation of RFP is dependent on the activity of the 5′ cap-dependent UTR.
Cells containing both the cyclic compound library and the reporter systems described above were first screened for survival upon exposure to diptheria toxin, and then screened by FACS to identify cells that had reduced GFP expression, as compared to RFP expression. Cells were expanded and replica-plated and grown in the presence or absence of dox (100 ng/ml) for four days. Plates were stimulated with IL-4 and GFP expression (relative to RFP) was monitored by flow cytometry. The IRES-inhibitory activity of a peptide is evaluated by calculating the ratio of the geometric mean of GFP expression of peptide positive cells (“peptide pos+” cells i.e., cells not contacted with dox) to the geometric mean of GFP expression of peptide negative cells (“peptide pos−” cells i.e., cells contacted with dox).
Cyclic peptides assigned higher scores have a greater IRES-inhibitory activity.
The number shown in parentheses after each of the amino acid sequences is the IRES-inhibitory activity ratio, as discussed above.

Row | Compound | IRES-inhibitory activity ratio (geometric mean GFP expression, peptide positive cells / peptide negative cells)
1 | C[C@@H](O)[C@@H]1NC(=O)[C@H](CCCNC(=N)N)NC(=O)[C@H](Cc2ccccc2)NC(=O)[C@H](Cc2c[nH]c3ccccc23)NC1=O [cyclo-TWFR, cyclo[TWFR]] (cyclo(FRTW)) | 1.56

Same assay, conditions: BJAB-S3A11 reporter cells, +/- dox 100 ng/ml four days; library intein junction Val-His-Asn-X1X2X3-Cys-Ile-Ser; ratio at least 1.20 = significant activity

Row | Compound | IRES-inhibitory activity ratio (geometric mean GFP expression, peptide positive cells / peptide negative cells)
2 | CSCC[C@@H]1NC(=O)[C@H]([C@@H](C)O)NC(=O)[C@H](Cc2ccccc2)NC1=O [cyclo-TMF, cyclo[TMF]] (cyclo(Phe-Thr-Met)) | 1.37
3 | CSCC[C@@H]1NC(=O)[C@H]([C@@H](C)O)NC(=O)[C@H](C(C)C)NC1=O [cyclo-TMV, cyclo[TMV]] (cyclo(Met-Val-Thr)) | 1.56
4 | CSCC[C@@H]1NC(=O)[C@H]([C@@H](C)O)NC(=O)[C@H](Cc2c[nH]c3ccccc23)NC1=O [cyclo-TMW, cyclo[TMW]] (cyclo(Met-Trp-Thr)) | 2.1
5 | C[C@@H](O)[C@@H]1NC(=O)[C@H](Cc2c[nH]c3ccccc23)NC(=O)[C@H](CC(N)=O)NC1=O [cyclo-TQW, cyclo[TQW]] | 1.7
6 | C[C@@H](O)[C@@H]1NC(=O)[C@H](Cc2c[nH]c3ccccc23)NC(=O)[C@H](CO)NC1=O [cyclo-TSW, cyclo[TSW]] (cyclo(Ser-Trp-Thr)) | 1.25
7 | C[C@@H](O)[C@@H]1NC(=O)[C@H](Cc2c[nH]c3ccccc23)NC(=O)[C@H](Cc2ccc(O)cc2)NC1=O [cyclo-TYW, cyclo[TYW]] (cyclo(Thr-Tyr-Trp)) | 2.23

Source: US20060116316A1, “Heterocyclic inhibitors of IRES-mediated translation and methods of use thereof” (priority 2004, published 2006)
